Results from patent US7230033B2, “Pest control compositions and methods for their use” (United States of America as represented by the Secretary of …, priority 2000, dated 2007).
≈ marks a conversion by molar mass, not a printed value. Read-outs that look alike come from different tables or passages of the source. Marks after values point to notes of the source that are not given here.

Key:
[1] = system: Ixodes scapularis nymphal ticks; assay: Tick repellency bioassay; type: in vivo
Source text: One-hundred (100) μl of test compound was pipetted onto a cotton-tipped applicator mounted to the bottom center of a 1 dram glass shell vial using non-toxic modeling clay. A total of 8 concentrations were screened with doses ranging from 0.04–5.0%. Applicators treated with acetone only served as controls. A line was drawn around the perimeter of the vial immediate to the base of the treated cotton portion of the applicator. The area above the line was designated the “repellent zone”. The vial was allowed to air-dry 1 h before a single tick was introduced. Vials were covered with a single piece of mesh and fitted with a hollowed-out plastic cap to cover the opening of the vial; this prevented the tick from escaping but allowed for air exchange. Vials were breathed upon by investigators at 1 min intervals and a hand was placed over the test vials to provide stimuli for ticks to pass into the repellent zone. […] If the tick crossed over and remained in the “repellent zone” for ≧5 sec, the tick was deemed non-repelled by the test compound. Each test was replicated 10 times using a new tick for each test. Repellent activity was determined at 1, 2, 3, and 4 h after treatment. Probit analysis was used to determine repellent efficacy (RD50 and RD95).

Ixodes scapularis nymphs = assay: Residual activity, aged treated vials, ticks; type: in vivo; settings: for LC90, residual activity: NE = not effective
Description: (§1) Briefly, groups of 10 nymphal I. scapularis and X. cheopis fleas were used in all tests (more than a total of 5,240 nymphs and 4,860 fleas were exposed to the compounds). The inner surface of 2-dram friction cap vials were treated with the compound/acetone solution, or acetone only as a control, and left to air-dry overnight (see also, Panella et al., J. Med. Entomol., 42(3):352-358, 2005. Three to 4 holes were made in the plastic cap to allow for air exchange. Nymphal ticks and adult fleas were then placed directly into the vials using forceps. Vials containing ticks or fleas were placed in desiccators for 24 h at 21° C. and 90% RH. Morbidity and mortality was recorded at 1, 2, 4, 8, and 24 h after initial exposure.

I. scapularis nymphs = assay: Tick bioassay, treated 2-dram vials, probit analysis; type: in vivo, Ixodes scapularis; settings: for LC90 / Slope: 24 h exposure; for LC90: NE = not effective at concentrations tested; for Slope: probit
Source text: A control treated with acetone only was run with each series.
For each time point, if ticks and fleas were incapable of movement, maintaining normal posture, leg coordination, ability to right themselves, or any signs of life, they were considered moribund or dead.

Ae. aegypti adults = assay: Adult mosquito bottle bioassay; type: in vivo, Aedes aegypti; settings: for Slope: probit
Description: (§2) Adult mosquitoes were tested using the bottle bioassay method of Brogden and McAllister (J. Am. Mosq. Control Assoc., 14:159–64, 1998) with minor modifications. Natural product extracts were two-fold serially diluted for a total of 8 concentrations ranging from 0.002% to 0.25% in 1.5 ml of acetone. Individual dilutions were added to 250 ml Wheaton glass bottles and capped. Bottles were manipulated to evenly coat all inner surfaces. The caps were removed and bottles were allowed to air-dry overnight. Once bottles were completely dry, 10–50 (in some tests 25–50) adult mosquitoes were aspirated into the bottles. Mosquitoes were held in the bottles for 24 h at 23° C. and 85% RH. Morbidity and mortality were recorded at 15, 30, 45, and 60 min and 24 hour intervals. One bottle for each replicate was treated with acetone only and served as a control. The dose-mortality data was evaluated with probit analysis, using the LdP Line software, to determine LC50 and LC90 values.
Carvacrol was combined with compound 7, 9, or 10 at a 1:1 ratio (7.5 μl of carvacrol:7.5 μl of compound 7, 9, or 10 was added to 2,985 μl of acetone for a 0.5% solution, from which serial dilutions were made), and tested as previously described against nymphal ticks and adult and larval mosquitoes.

[2] = system: fourth-instar Aedes aegypti larvae; assay: Larval mosquito bioassay; type: in vivo; settings: Aedes aegypti larval mosquitoes, concentration of the 1 ml added to 150 ml water
Description: Individual groups of 10 fourth-instar Aedes aegypti larvae were contained in 150 ml of water and exposed to […] of essential oils prepared by 2-fold serial dilutions ranging from 0.06%–5.0% in 1 ml of acetone. A control group of larvae were exposed to 1 ml of acetone only.
It is important to note that larval mosquitoes are tested in their natural environment, i.e., in water. The particular assays used herein involved groups of 10 larval mosquitoes in 150 ml of water. The weight percentages reported for lethal concentration for larval mosquitoes are the weight percentages added to the 150 ml water (as opposed to the final percentage of the tested compound(s) in the 150 ml water). As one of skill in the art will appreciate, test compound(s) added to a volume of water (such as, 150 ml) can be dramatically diluted depending upon the water solubility of the tested compound. […] If the tested compound is an oil (such as, carvacrol, nootkatone, or 13-hydroxy-valencene), it most likely floats on the surface of the water.

[3] = system: ticks, fleas, and mosquitoes; assay: Residual activity, general statements (Examples 9, 17); type: in vivo
X. cheopis adults = assay: Flea bioassay, treated 2-dram vials, probit analysis; type: in vivo, Xenopsylla cheopis; settings: 24 h exposure; for Slope: probit
Description: Med. […] A control treated with acetone only was run with each series. Tick and flea susceptibility was evaluated using a modification of the disposable pipette method of Barnard et al. (J. Econ. Entomol., 74:466-69, 1981) and Maupin and […]. Med. […] The inner surface of 2-dram friction cap vials were treated with the compound/acetone solution, or acetone only as a control, and left to air-dry overnight (see also, […] et al., J. Med. […] Three to 4 holes were made in the plastic cap to allow for air exchange. Nymphal ticks and adult fleas were then placed directly into the vials using forceps. […] For each time point, if ticks and fleas were incapable of movement, maintaining normal posture, leg coordination, ability to right themselves, or any signs of life, they were considered moribund or dead.

Aedes aegypti adults = assay: Residual activity, aged treated bottles, mosquitoes; type: in vivo
Description: as §2

[4] = system: Xenopsylla cheopis adults; assay: Residual activity, aged treated vials, fleas; type: in vivo
Description: as §1

[5] = 1 h after compound applied to applicator
[6] = 4 h after compound applied to applicator
[7] = Ixodes scapularis nymphal ticks, alone, or 1:1 with carvacrol (in parenthesis)
[8] = Ixodes scapularis nymphal ticks, alone, or 1:1 with carvacrol (in parenthesis), listed as carvacrol
[9] = 24 h exposure, NE = not effective at concentrations tested
[10] = Aedes aegypti adult mosquitoes, alone, or 1:1 with carvacrol (in parenthesis)
[11] = 2 weeks after treatment, NE = not effective

SMILES: Cc1ccc(C(C)C)cc1O [Compound 4, Carvacrol]
- Slope (±SEM) ([1]; 1 h): 1.506 (±0.355)
- RD50 [1, 5]: 0.088 % (wt:vol)
- RD95 [1, 5]: 1.09 % (wt:vol)
- Slope (±SEM) ([1]; 4 h): 2.907 (±0.755)
- RD50 [1, 6]: 0.077 % (wt:vol)
- RD95 [1, 6]: 0.283 % (wt:vol)
- more effective than Deet ([1]; at 1 h): 1.9 fold
- more effective than Deet ([1]; at 4 h): 46 fold
- residual activity (Ixodes scapularis nymphs; nymphal I. scapularis): lacks any residual activity beyond about 1 week
- LC90 (I. scapularis nymphs): 0.014 percent concentration, wt:vol
- Slope (I. scapularis nymphs): 3.906
- LC50 (1 h) (I. scapularis nymphs; [7]): 0.019^b % (wt:vol)
- LC50 (24 h) (I. scapularis nymphs; [7]): 0.0068 % (wt:vol)
- LC90 (1 hr) (I. scapularis nymphs; [7]): 0.071 % (wt:vol)
- LC90 (24 h) (I. scapularis nymphs; [7]): 0.014 % (wt:vol)
- LC50 (1 h) (I. scapularis nymphs; [8]): 0.019 % (wt:vol)
- LC50 (24 h) (I. scapularis nymphs; [8]): about 0.0068 % (wt:vol)
- LC50 (Ae. aegypti adults; [9]): 0.0051 percent concentration, wt:vol
- Slope (Ae. aegypti adults; 24 h exposure): 2.908
- LC50 (15 min) (Ae. aegypti adults; [10]): 0.0057^b % (wt:vol)
- LC50 (24 h) (Ae. aegypti adults; [10]): 0.0051 % (wt:vol)
- LC90 (15 min) (Ae. aegypti adults; [10]): 0.017 % (wt:vol)
- LC90 (24 h) (Ae. aegypti adults; [10]): 0.014 % (wt:vol)
- LC50 (15 min) (Ae. aegypti adults; Aedes aegypti adult mosquitoes, alone, or 1:1 with carvacrol (in parenthesis), listed as carvacrol): 0.0057 % (wt:vol)
- LC50 (1 h) [2]: 3.853^b % (wt:vol)
- LC50 (24 h) [2]: 0.988 % (wt:vol)
- LC90 (1 hr) [2]: 10.478 % (wt:vol)
- LC90 (24 h) [2]: 1.411 % (wt:vol)
- LC50 (1 h) ([2]; listed as carvacrol): 3.853 % (wt:vol)
- LC50 (24 h) ([2]; listed as carvacrol): 1.411 % (wt:vol)
- residual activity [3]: little-to-no activity beyond 24 h
- Slope (X. cheopis adults): 3.413

SMILES: C=C(C)[C@@H]1CCC2=CC(=O)C[C@@H](C)[C@]2(C)C1 [Compound 8, Nootkatone]
- Slope, residual activity (Aedes aegypti adults; 1 week after treatment): 3.858
- Slope, residual activity (Aedes aegypti adults; 2 weeks after treatment): 4.953
- LC90, residual activity (Aedes aegypti adults; [11]): 0.012 percent concentration, wt:vol
- Slope, residual activity (Aedes aegypti adults; 4 weeks after treatment): 7.772
- Slope, residual activity (Ixodes scapularis nymphs; 1 week after treatment): 2.871
- Slope, residual activity (Ixodes scapularis nymphs; 2 weeks after treatment): 2.727
- LC90, residual activity (Ixodes scapularis nymphs; 2 weeks after treatment): 0.056 percent concentration, wt:vol
- Slope, residual activity (Ixodes scapularis nymphs; 4 weeks after treatment): 2.871
- LC90 (I. scapularis nymphs): 0.015 percent concentration, wt:vol
- Slope (I. scapularis nymphs): 3.211
- Slope, residual activity ([4]; 1 week after treatment): 3.107
- LC90, residual activity ([4]; 1 week after treatment, NE = not effective): 0.053 percent concentration, wt:vol
- LC90, residual activity ([4]; 2 weeks after treatment): 0.081 percent concentration, wt:vol
- Slope, residual activity ([4]; 2 weeks after treatment): 1.931
- Slope, residual activity ([4]; 4 weeks after treatment): 1.95
- LC90 (Ae. aegypti adults; [9]): 0.0087 percent concentration, wt:vol
- Slope (Ae. aegypti adults; 24 h exposure): 4.635
- LC50 (Ae. aegypti adults; Aedes aegypti, 24 h exposure, NE = not effective at concentrations tested, read-out: LC50): 46 µg/mL (≈ 211 µM)
- residual activity ([3]; ticks): considerable biological activity through the four week time period
- LC90 (X. cheopis adults; NE = not effective at concentrations tested): 0.008 percent concentration, wt:vol
- Slope (X. cheopis adults): 2.949

SMILES: C=C(C=O)C1CCC2=CCC[C@@H](C)[C@]2(C)C1 (stereo partly drawn) [Compound 15, valencene-13-aldehyde]
- LC90, residual activity (Aedes aegypti adults; 1 week after treatment): 0.027 percent concentration, wt:vol
- Slope, residual activity (Aedes aegypti adults; 1 week after treatment): 3.392
- Slope, residual activity (Aedes aegypti adults; 2 weeks after treatment): 3.136
- LC90, residual activity (Aedes aegypti adults; [11]): 0.037 percent concentration, wt:vol
- Slope, residual activity (Ixodes scapularis nymphs; 1 week after treatment): 2.859
- LC90, residual activity (Ixodes scapularis nymphs; 1 week after treatment): 0.072 percent concentration, wt:vol
- Slope (I. scapularis nymphs): 2.755
- Slope, residual activity ([4]; 1 week after treatment): 3.211
- Slope (Ae. aegypti adults; 24 h exposure): 8.714
- residual activity ([3]; ticks): considerable biological activity through the four week time period
- Slope (X. cheopis adults): 5.366

SMILES: C=C(C)C1CCC23OC2C(=O)C[C@@H](C)[C@]3(C)C1 (stereo partly drawn) [Compound 17, nootkatone-1,10-epoxide]
- RD50 ([1]; 1 hr, combinations 1:1 by weight): 3×10^−1 % (w/v)
- RD50 ([1]; 4 hr, combinations 1:1 by weight): 0.135 % (w/v)
- Slope (I. scapularis nymphs): 2.883
- Slope (Ae. aegypti adults; 24 h exposure): 1.346
- Slope (X. cheopis adults): 2.326

SMILES: C[C@@H]1CC(=O)C2OC23CCC(C2(C)CO2)C[C@@]13C (stereo partly drawn) [Compound 18, nootkatone-1,10–11,12-diepoxide]
- Slope (I. scapularis nymphs): 2.131
- Slope (Ae. aegypti adults; 24 h exposure): 4.472
- Slope (X. cheopis adults): 1.455

SMILES: CCN(CC)C(=O)c1cccc(C)c1 [Deet, N, N-diethyl-m-toluamide, reference compound]
- Slope (±SEM) ([1]; 1 h): 0.633 (±0.222)
- RD50 [1, 5]: 0.167 % (wt:vol)
- RD95 [1, 5]: 50.579 % (wt:vol)
- Slope (±SEM) ([1]; 4 h): 0.485 (±0.212)
- RD50 [1, 6]: 0.384 % (wt:vol)
- RD95 [1, 6]: 950.294 % (wt:vol)
